In the experiment the target is T1, Mtb Pck (Mycobacterium tuberculosis, UniProt P9WIH3).
T1 construct: gene pckG
The experiment in a line: biochemical.

This is an account of results in article PMC4370629, “Structural and Functional Studies of Phosphoenolpyruvate Carboxykinase from Mycobacterium tuberculosis” (PLoS ONE, 2015).

One may read the Kd as the free concentration of one partner at which half of the binding sites on the other are occupied at equilibrium, for simple one-to-one binding. Read a high Kd as weaker binding.

T1 sequence (P9WIH3 whole entry): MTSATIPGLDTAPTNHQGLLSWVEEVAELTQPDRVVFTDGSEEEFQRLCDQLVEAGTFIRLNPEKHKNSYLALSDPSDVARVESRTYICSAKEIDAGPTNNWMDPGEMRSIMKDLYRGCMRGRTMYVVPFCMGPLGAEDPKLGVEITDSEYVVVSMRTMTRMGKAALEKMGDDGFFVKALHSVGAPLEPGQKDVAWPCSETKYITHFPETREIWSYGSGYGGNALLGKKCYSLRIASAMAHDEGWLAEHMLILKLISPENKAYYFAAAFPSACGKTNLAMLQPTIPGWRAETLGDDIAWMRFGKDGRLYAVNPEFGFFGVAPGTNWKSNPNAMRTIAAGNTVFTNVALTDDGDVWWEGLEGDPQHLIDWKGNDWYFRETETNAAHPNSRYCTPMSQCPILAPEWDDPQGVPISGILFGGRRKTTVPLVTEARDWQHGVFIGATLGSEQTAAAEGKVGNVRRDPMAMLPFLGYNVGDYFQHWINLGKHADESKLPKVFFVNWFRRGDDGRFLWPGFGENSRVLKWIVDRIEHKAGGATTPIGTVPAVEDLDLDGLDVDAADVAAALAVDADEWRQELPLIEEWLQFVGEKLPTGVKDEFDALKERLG

Consider `Nc1nc2c(ncn2[C@@H]2O[C@H](COP(=O)(O)OP(=O)(O)OP(=O)(O)O)[C@@H](O)[C@H]2O)c(=O)[nH]1` [GTP], for which the affinity, expressed as Kd, was 7.3 µM.
